Earlier results as cited in patent publication US8394428B1, “Formulations and methods for preventing eyebrow hair loss” (RMV Trademarks, LLC, priority 2010, dated 2013).

Tested on: hair loss in human scalp
Details: topical application, after administration of cyclophosphamide

In the case of `C=C1/C(=C\C=C2/CCC[C@]3(C)[C@@H]([C@H](C)CCCC(C)(C)O)CC[C@@H]23)C[C@@H](O)C[C@@H]1O` [1,25-dihydroxyvitamin D3], the “Prevention or retardation of hair loss” value is given as “failed to prevent or retard hair loss”.
